# Source: PMC9796023, “In vivo and in vitro characterization of GL0034, a novel long‐acting glucagon‐like peptide‐1 receptor agonist” (Diabetes, Obesity & Metabolism, 2022)
# Where no end group is shown, it is not given here. [ ]: non-standard residue; d: D form. Aib = CC(C)(N)C(=O)O
# Tests used:
# [1] = target: human serum albumin (human) (UniProt P02768)
# [2] = tested on: HFHS diet-fed C57BL6/J mice; test: Study in high-fat, high-sucrose diet-fed mice; assay type: in vivo, mouse; conditions: end of study, n = 3
# Description: Male C57BL6/J mice were purchased from Charles River (UK). The mice were housed in a pathogen‐free facility with a 12‐hour light/12‐hour dark cycle. From the age of 8 weeks they were put on a 58 kcal % fat and sucrose diet (D12331; Research Diets Inc., New Brunswick, New Jersey) for 8 weeks to induce obesity and glucose intolerance. […] Body weight was monitored at regular intervals. For glucose tolerance testing, mice were fasted overnight (total 16 hours) and given free access to water. At 9:00 AM, glucose (3 g/kg body weight) was administered via intraperitoneal injection or oral gavage. Blood was sampled from the tail vein at 0, 5, 15, 30, 60 and 90 minutes after glucose administration. Blood glucose was measured with an automatic glucometer (Accuchek; Roche, Burgess Hill, UK). To quantify circulating insulin, 10 μL blood was collected from the tail vein into heparin‐coated tubes (Sarstedt, Beaumont Leys, UK). Plasma was separated by sedimentation at 10 000g for 10 minutes at 4°C. Plasma insulin levels were measured in 5‐μL aliquots by ELISA kits from Crystal Chem (Elk Grove Village, Illinois). At the end of the study, pancreata were isolated and processed for immunohistochemistry.
# [3] = target: T1, GLP-1R (PathHunter CHO-K1-βarr2-EA-GLP-1R cells) (Homo sapiens, UniProt P43220); test: PathHunter β-arrestin-2 recruitment assay; assay type: cell-based
# T1 construct: host or cells: CHO-K1 (PathHunter, co-expressing β-arrestin-2-EA)
# Description: PathHunter CHO‐K1‐βarr2‐EA‐GLP‐1R cells were stimulated with agonist for 30 minutes at 37°C in Ham's F12 medium without FBS. At the end of the incubation period, cells were lysed by addition of PathHunter detection reagents and luminescent signal was subsequently recorded from each well.
# [4] = target: T2, human SNAP-GLP-1R (HEK293-SNAP-GLP-1R cells) (Homo sapiens, UniProt P43220); test: cAMP assay (HTRF) in HEK293-SNAP-GLP-1R cells; assay type: cell-based
# T2 construct: expressed in transfected cells
# Description: HEK293‐SNAP‐GLP‐1R cells were stimulated with agonist for 30 minutes at 37°C, either in serum‐free media (SFM) or SFM supplemented with 2% human serum albumin (HSA; Sigma Aldrich, Poole, UK). cAMP was determined at the end of the incubation period by homogenous time‐resolved fluorescence (HTRF; cAMP Dynamic 2 kit; Cisbio) using a Spectramax i3x plate reader (Molecular Devices, Wokingham, UK).
# For in vitro data, the average of within‐assay replicates was counted as one biological replicate. For kinetic binding assays, rate constants for association and dissociation of the unlabelled ligands were calculated using the “kinetics of competition binding” algorithm in PRISM 8 (GraphPad Software), using values for exendin(9‐39)‐FITC determined in the same experiment. Functional concentration response data were fitted using three‐parameter logistic fitting (PRISM 8), with constraints applied where appropriate. Pharmacokinetic analysis was performed using Phoenix® Win‐Nonlin® (Version 8.0). Statistical comparisons were performed using Student's t‐test or one‐way ANOVA, as appropriate. Paired or matched analyses were performed where permitted by the experimental design. Specific post hoc tests are indicated in the legends. Statistical significance was assigned where P < 0.05. […]
# [5] = target: T2, human SNAP-GLP-1R (HEK293-SNAP-GLP-1R cells); test: Time-resolved FRET kinetic competition binding vs exendin(9-39)-FITC
# Description: (§1) For in vitro data, the average of within‐assay replicates was counted as one biological replicate. For kinetic binding assays, rate constants for association and dissociation of the unlabelled ligands were calculated using the “kinetics of competition binding” algorithm in PRISM 8 (GraphPad Software), using values for exendin(9‐39)‐FITC determined in the same experiment. Functional concentration response data were fitted using three‐parameter logistic fitting (PRISM 8), with constraints applied where appropriate. Pharmacokinetic analysis was performed using Phoenix® Win‐Nonlin® (Version 8.0). Statistical comparisons were performed using Student's t‐test or one‐way ANOVA, as appropriate. Paired or matched analyses were performed where permitted by the experimental design. Specific post hoc tests are indicated in the legends. Statistical significance was assigned where P < 0.05. Data are represented as mean ± standard error of the mean (SEM) throughout, with individual replicates indicated where possible.
# [6] = Plasma pharmacokinetic study in CD-1 mice; assay type: in vivo, mouse; conditions: male CD-1 mice, single s.c. 1 mg/kg, LC-MS/MS, n = 5 per timepoint
# Description: A plasma pharmacokinetic study of GL0034 was performed in male CD‐1 Mice (6‐9 weeks of age; 30‐50 g body weight) procured from the Laboratory Animal Resources Department of Sun Pharma Advanced Research Company Ltd (www.sparc.life, a subsidiary of Sun Pharma Industries Ltd.). For full details see Supplementary Methods.
# as §1
# Animals (n=45) were procured from Laboratory Animal Resources Dept. of Sun Pharma Advanced Research Company Ltd. (www.sparc.life, a subsidiary of Sun Pharma Industries Ltd.). Animals were acclimatized for one day. On day 0, each animal was weighed. Animals were divided into 9 groups, each group containing 5 male animals (one group representing one time-point). All the animals were injected subcutaneously at a dose of 1 mg/kg (dose volume: 10 ml/kg) using 26½ gauge needle attached to an appropriately graduated syringe. At 1, 2, 4, 8, 12, 24, 48, 72 and 96 hours after injection, ~500 µL of blood was collected from mice by retro-orbital plexus puncture using capillary micro-centrifuge tubes containing anticoagulant (15 µL of 10% K2EDTA per tube). Plasma was separated from the collected blood samples by centrifugation at ~3300 rpm (1985 g) for 10 min at 4°C ± 2°C. GL0034 concentrations were estimated using liquid chromatography with tandem mass spectrometry (LCMS-MS). Lower limit of quantitation (LLOQ) for GL0034 was 50 ng/mL.
# [7] = target: human SNAP-GLP-1R (glucagon-like peptide-1 receptor) on HEK293 cells (human, UniProt P43220 24-463, SNAP tag labelled with SNAP-Lumi4-Tb); test: cell-based or functional assay
# Chain of human SNAP-GLP-1R (glucagon-like peptide-1 receptor) on HEK293 cells (P43220 24-463): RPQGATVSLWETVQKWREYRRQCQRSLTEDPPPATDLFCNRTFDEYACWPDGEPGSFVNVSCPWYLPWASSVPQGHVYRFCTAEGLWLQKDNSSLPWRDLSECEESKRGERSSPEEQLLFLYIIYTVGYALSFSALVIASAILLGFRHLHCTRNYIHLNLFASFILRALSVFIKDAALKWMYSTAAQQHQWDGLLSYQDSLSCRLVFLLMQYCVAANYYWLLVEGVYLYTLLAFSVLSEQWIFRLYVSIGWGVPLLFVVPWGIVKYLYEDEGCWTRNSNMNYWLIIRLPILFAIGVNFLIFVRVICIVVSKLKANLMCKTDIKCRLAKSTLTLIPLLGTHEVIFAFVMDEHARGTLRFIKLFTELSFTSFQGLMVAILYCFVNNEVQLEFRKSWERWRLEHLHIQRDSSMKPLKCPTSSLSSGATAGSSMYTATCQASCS
# T2 sequence (P43220 24-463): as above
# T1 sequence (P43220 24-463): as above
molecule,measurement,setting,value
GL0034 (peptide),∆pEC50 of GLP-1R cAMP signalling potency with and without 2% HSA (HEK293-SNAP-GLP-1R cells),[1],2.1
CC[C@H](C)[C@H](NC(=O)[C@H](Cc1ccccc1)NC(=O)[C@H](CCC(=O)O)NC(=O)[C@H](CCCCNC(=O)COCCOCCNC(=O)C(C)(C)NC(=O)CC[C@H](NC(=O)CCCCCCCCCCCCCCCCC(=O)O)C(=O)O)NC(=O)[C@H](C)NC(=O)[C@H](C)NC(=O)[C@H](CCC(N)=O)NC(=O)CNC(=O)[C@H](CCC(=O)O)NC(=O)[C@H](CC(C)C)NC(=O)[C@H](Cc1ccc(O)cc1)NC(=O)[C@H](CO)NC(=O)[C@H](CO)NC(=O)[C@@H](NC(=O)[C@H](CC(=O)O)NC(=O)[C@H](CO)NC(=O)[C@@H](NC(=O)[C@H](Cc1ccccc1)NC(=O)[C@@H](NC(=O)CNC(=O)[C@H](CCC(=O)O)NC(=O)C(C)(C)NC(=O)[C@@H](N)Cc1c[nH]cn1)[C@@H](C)O)[C@@H](C)O)C(C)C)C(=O)N[C@@H](C)C(=O)N[C@@H](Cc1c[nH]c2ccccc12)C(=O)N[C@@H](CC(C)C)C(=O)N[C@H](C(=O)N[C@@H](CCCNC(=N)N)C(=O)NCC(=O)N[C@@H](CCCNC(=N)N)C(=O)NCC(=O)N[C@@H](CC(C)C)C(=O)O)C(C)C [GL0034],Plasma amylase levels,[2],no difference
same,Emax,"[3]; 30 min, 37°C, Ham's F12 without FBS, estimate ± SEM, n = 5",102 ± 1%
same,EC50,[3]; read-out: βarr2 LogEC50 (converted),79.4 nM
same,Emax,"[4]; 30 min, 37°C, estimate ± SEM, n = 5",97 ± 2%
same,EC50,[4]; read-out: cAMP LogEC50 (converted),0.631 nM
same,Kd,[5],25.1 nM
same,koff,"[5]; HEK293-SNAP-GLP-1R, 37°C, competition with 10 nM exendin(9-39)-FITC, estimate ± SEM, n = 4",0.00367 s⁻¹
same,Kel,[6],0.0906 h⁻¹
same,Cmax,"[6]; mouse, sc",921 nM
same,Tmax,"[6]; mouse, sc",4 h
same,half-life,"[6]; mouse, sc, read-out: t1/2 (plasma half-life) (converted)",459 min
"CC[C@H](C)[C@H](NC(=O)[C@H](Cc1ccccc1)NC(=O)[C@H](CCC(=O)O)NC(=O)[C@H](CCCCNC(=O)COCCOCCNC(=O)COCCOCCNC(=O)CC[C@H](NC(=O)CCCCCCCCCCCCCCCCC(=O)O)C(=O)O)NC(=O)[C@H](C)NC(=O)[C@H](C)NC(=O)[C@H](CCC(N)=O)NC(=O)CNC(=O)[C@H](CCC(=O)O)NC(=O)[C@H](CC(C)C)NC(=O)[C@H](Cc1ccc(O)cc1)NC(=O)[C@H](CO)NC(=O)[C@H](CO)NC(=O)[C@@H](NC(=O)[C@H](CC(=O)O)NC(=O)[C@H](CO)NC(=O)[C@@H](NC(=O)[C@H](Cc1ccccc1)NC(=O)[C@@H](NC(=O)CNC(=O)[C@H](CCC(=O)O)NC(=O)C(C)(C)NC(=O)[C@@H](N)Cc1cnc[nH]1)[C@@H](C)O)[C@@H](C)O)C(C)C)C(=O)N[C@@H](C)C(=O)N[C@@H](Cc1c[nH]c2ccccc12)C(=O)N[C@@H](CC(C)C)C(=O)N[C@H](C(=O)N[C@@H](CCCNC(=N)N)C(=O)NCC(=O)N[C@@H](CCCNC(=N)N)C(=O)NCC(=O)O)C(C)C [Semaglutide, reference compound]",Plasma amylase levels,[2],no difference
"H[Aib]EGTFTSDVSSYLEGQAAKEFIAWLVRGRGL (not fully specified (residue 20); also: K20 linker includes Aib, structure not given here) [GL0034]","GLP-1R endocytosis (high content imaging), HEK293-SNAP-GLP-1R cells, LogEC50 (M)",[7],-9.2 M (log)
same,"cAMP production, HEK293-SNAP-GLP-1R cells, 30 minutes, LogEC50 (M)",[7],-9.2 M (log)
